Like-named read-outs stand apart in the source and are kept apart here.
Tests used:
[1] = target: T1, human adenosine A1 receptor (Homo sapiens, UniProt P30542); test: Human adenosine A1 receptor [3H]-DPCPX binding assay; conditions: membranes of CHO cells, read-out: hA1 (pKi) (converted)
T1 construct: expressed in transfected cells; host or cells: CHO cells, semliki forest virus expression system; membrane preparation
T1 sequence (P30542 1-326): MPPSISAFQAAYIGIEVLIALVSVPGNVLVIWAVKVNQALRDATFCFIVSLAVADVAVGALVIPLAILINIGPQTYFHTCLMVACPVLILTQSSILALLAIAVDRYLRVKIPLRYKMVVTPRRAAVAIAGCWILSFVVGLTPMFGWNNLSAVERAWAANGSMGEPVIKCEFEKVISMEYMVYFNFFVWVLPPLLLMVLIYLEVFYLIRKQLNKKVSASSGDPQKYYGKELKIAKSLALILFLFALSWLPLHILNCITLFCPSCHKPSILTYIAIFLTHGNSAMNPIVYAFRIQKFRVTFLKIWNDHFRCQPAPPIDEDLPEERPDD
Procedure: The gene encoding human adenosine A1 receptor was recombinantly introduced and expressed in chinese hamster ovary (CHO) cells using the semliki forest virus expression system. Cells were harvested, washed twice by centrifugation, homogenised and again washed by centrifugation. The final washed membrane pellet was suspended in a Tris (50 mM) buffer containing 120 mM NaCl, 5 mM KCl, 2 mM CaCl2 and 10 mM MgCl2 (pH 7.4) (buffer A). The [^3H]-DPCPX (([propyl-3H]8-cyclopentyl-1,3-dipropyxanthine); 0.6 nM) binding assay was carried out in 96-well plates in the presence of 2.5 μg of membrane protein, 0.5 mg of Ysi-poly-1-lysine SPA beads and 0. I U adenosine deaminase in a final volume of 200 μl of buffer A. Non-specific binding was defined using xanthine amine congener (XAC; 2 μM). Compounds were tested at 10 concentrations from 10 μM-0.3 nM. All assays were conducted in duplicate and repeated at least two times. Assay plates were incubated for 1 hour at room temperature before centrifugation and then bound ligand determined using a Packard Topcount scintillation counter. IC50 values were calculated using a non-linear curve fitting program and Ki values calculated using the Cheng-Prussoff equation.

[2] = target: T2, human adenosine A2A receptor (Homo sapiens, UniProt P29274); test: Human adenosine A2A receptor [3H]-SCH-58261 binding assay
T2 construct: expressed in transfected cells; host or cells: CHO cells, semliki forest virus expression system; membrane preparation
T2 sequence (P29274 whole entry): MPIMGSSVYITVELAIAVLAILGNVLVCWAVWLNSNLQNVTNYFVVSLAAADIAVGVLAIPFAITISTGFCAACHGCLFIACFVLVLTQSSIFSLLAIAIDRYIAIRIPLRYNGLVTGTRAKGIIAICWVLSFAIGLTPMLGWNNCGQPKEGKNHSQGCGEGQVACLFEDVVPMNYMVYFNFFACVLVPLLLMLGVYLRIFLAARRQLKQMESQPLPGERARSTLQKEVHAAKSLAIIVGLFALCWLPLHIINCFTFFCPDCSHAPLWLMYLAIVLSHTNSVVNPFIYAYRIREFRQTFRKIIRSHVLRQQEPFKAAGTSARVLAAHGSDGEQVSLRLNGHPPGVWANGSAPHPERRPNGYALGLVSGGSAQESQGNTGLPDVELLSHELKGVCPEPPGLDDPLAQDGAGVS
Outline: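 Membranes from CHO cells expressing the human receptor (Semliki Forest virus system) were incubated with 1 nM [3H]-SCH-58261 and adenosine deaminase. The buffer was Tris pH 7.4 with NaCl, KCl, CaCl2 and MgCl2, and the read-out was SPA after 1 h at room temperature. Non-specific binding was defined with XAC; compounds were run at 10 concentrations (10 μM–0.3 nM), and IC50 values were converted to Ki by Cheng-Prusoff.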

[3] = target: T3, human adenosine A3 receptor (Homo sapiens, UniProt P0DMS8); test: Human adenosine A3 receptor [125I]-AB-MECA binding assay; conditions: membranes of CHO cells, read-out: hA3 (pKi) (converted)
T3 construct: expressed in transfected cells; host or cells: CHO cells, semliki forest virus expression system; membrane preparation
T3 sequence (P0DMS8 1-318): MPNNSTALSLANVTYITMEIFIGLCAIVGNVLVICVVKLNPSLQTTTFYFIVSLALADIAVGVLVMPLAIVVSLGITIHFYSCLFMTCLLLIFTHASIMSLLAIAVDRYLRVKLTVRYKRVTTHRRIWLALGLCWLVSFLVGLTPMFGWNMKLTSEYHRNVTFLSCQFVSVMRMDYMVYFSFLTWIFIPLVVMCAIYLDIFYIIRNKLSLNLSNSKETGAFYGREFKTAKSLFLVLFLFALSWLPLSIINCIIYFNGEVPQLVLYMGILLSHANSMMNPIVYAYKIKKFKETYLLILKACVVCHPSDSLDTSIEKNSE
Procedure: The gene encoding human adenosine A3 receptor was recombinantly introduced and expressed in chinese hamster ovary (CHO) cells using the semliki forest virus expression system. Cells were harvested, washed twice by centrifugation, homogenised and again washed by centrifugation. The final washed membrane pellet was suspended in a Tris (50 mM) buffer containing 120 mM NaCl, 5 mM KCl, 2 mM CaCl2 and 10 mM MgCl2 (pH 7.4) (buffer A). The [^125I]-AB-MECA ([N(6)-(4-amino-3-iodobenzyl)-5′-N-methylcarbamoyl-adenosine]; 0.05 nM) binding assay was carried out in 96-well plates in the presence of 20 μg of membrane protein and 0.1 U adenosine deaminase in a final volume of 200 μl of buffer A. Non-specific binding was defined using xanthine amine congener (XAC; 2 μM). Compounds were tested at 10 concentrations from 10 μM-0.3 nM. All assays were conducted in duplicate and repeated at least two times. Assay plates were incubated for 1 hour at room temperature before filtration through Whatman Unifilter GF/C 96-well filter plates (preincubated with 0.3% polyethyleneimine). Filters were washed 3 times with 0.3 ml of cold (4° C.) Tris (50 mM)-Nacl (120 mM) buffer (pH 7.4). Microscint 40 scintillation fluid (50 μl) was added to each well and the wells sealed. After gentle shaking for 20 min, plates were counted on a Packard Topcount scintillation counter. IC50 values were calculated using a non-linear curve fitting program and Ki values calculated using the Cheng-Prussoff equation.

[4] = human A2A receptor, selectivity table, read-out: hA2 (pKi) (converted)
[5] = human A2A receptor, selectivity table
[6] = human A2a receptor, membranes of CHO cells, [3H]-SCH-58261, read-out: pKi (affinity to the human A2a receptor) (converted)

Row | Ki [1] [nM] | Ki [2, 4] [nM] | Ki [3] [nM] | hA2 (pKi) [2, 5] | Ki [2, 6] [nM] | Compound
1 | 1320 | 57.5 | 1950 | – | – | COc1cc(-c2nc(N)nc(SC)c2C#N)cc(OC)c1OC [Example 15, 2-Amino-4-methylsulfanyl-6-(3,4,5-trimethoxy-phenyl)-pyrimidine-5-carbonitrile]
2 | 2510 | 36.3 | 1260 | – | – | N#Cc1cnc(N)nc1-c1cccs1 [Example 26, 2-Amino-4-thiophen-2-yl-2-pyrimidine-5-carbonitrile]
3 | 1660 | – | 8910 | 8.33 | 4.68 | N#Cc1c(NCc2ccccc2)nc(N)nc1-c1ccco1 [Example 42, 2-Amino-4-benzylamino-6-furan-2-yl-pyrimidine-5-carbonitrile]
4 | 692 | – | 6030 | 8.33 | 4.68 | N#Cc1c(NCCNc2ccccc2)nc(N)nc1-c1ccco1 [Example 132, 2-Amino-4-furan-2-yl-6-(2-phenylamino-ethylamino)-pyrimidine-5-carbonitrile]
5 | 389 | – | 2040 | 8.34 | 4.57 | N#Cc1c(/C=C/c2ccccc2)nc(N)nc1-c1ccco1 [Example 149, (E)-2-Amino-4-furan-2-yl-6-styryl-pyrimidine-5-carbonitrile]
6 | 372 | – | 151 | 8.59 | 2.57 | Cc1ccccc1CNc1nc(N)nc(-c2ccco2)c1C#N [Example 288, 2-Amino-4-furan-2-yl-6-(2-methyl-benzylamino)-pyrimidine-5-carbonitrile]
7 | 2040 | – | – | 8.17 | 6.76 | Cc1ccc(CNc2nc(N)nc(-c3ccco3)c2C#N)cc1 [Example 290, 2-Amino-4-furan-2-yl-6-(4-methyl-benzylamino)-pyrimidine-5-carbonitrile]
8 | 6920 | – | – | 8.23 | 5.89 | N#Cc1c(NCc2ccc3ccccc3c2)nc(N)nc1-c1ccco1 [Example 298, 2-Amino-4-furan-2-yl-6-[(naphthalen-2-ylmethyl)-amino]-pyrimidine-5-carbonitrile]
9 | 316 | – | 8710 | 8.60 | 2.51 | N#Cc1c(OCc2ccc3ccccc3c2)nc(N)nc1-c1ccco1 [Example 303, 2-Amino-4-furan-2-yl-6-(naphthalen-2-ylmethoxy)-pyrimidine-5-carbonitrile]
10 | 851 | – | 7240 | 8.27 | 5.37 | N#Cc1c(NCCNc2ccc(Cl)cc2)nc(N)nc1-c1ccco1 [Example 318, 2-Amino-4-[2-(4-chloro-phenylamino)-ethylamino]-6-furan-2-yl-pyrimidine-5-carbonitrile]
11 | 2880 | – | 3980 | 8.26 | 5.5 | N#Cc1c(NCc2ccc(Br)cc2)nc(N)nc1-c1ccco1 [Example 325, 2-Amino-4-(4-bromo-benzylamino)-6-furan-2-yl-pyrimidine-5-carbonitrile]
12 | 6310 | – | – | 8.38 | 4.17 | N#Cc1c(NCc2ccc(C(F)(F)F)cc2)nc(N)nc1-c1ccco1 [Example 345, 2-Amino-4-furan-2-yl-6-(4-trifluoromethyl-benzylamino)-pyrimidine-5-carbonitrile]
13 | 646 | – | 2140 | 8.40 | 3.98 | CCc1ccc(CNc2nc(N)nc(-c3ccco3)c2C#N)cc1 [Example 375, 2-Amino-4-(4-ethyl-benzylamino)-6-furan-2-yl-pyrimidine-5-carbonitrile]
14 | 4470 | – | – | 8.44 | 3.63 | N#Cc1c(NCc2ncc(C(F)(F)F)cc2Cl)nc(N)nc1-c1ccco1 [Example 400, 2-Amino-4-[(3-chloro-5-trifluoromethyl-pyridin-2-yl-methyl)-amino]-6-furan-2-yl-pyrimidine-5-carbonitrile]
15 | – | – | – | – | 5.62 | Cc1ccc(COc2nc(N)nc(-c3ccc(Cl)o3)c2C#N)nc1 [Example 531, 2-Amino-4-(5-chloro-furan-2-yl)-6-(5-methyl-pyridin-2-yl-methoxy)-pyrimidine-5-carbonitrile]
16 | – | – | – | – | 5.62 | Cc1ccc(COc2nc(N)nc(-c3cc(Br)co3)c2C#N)nc1 [Example 532, 2-Amino-4-(4-bromo-furan-2-yl)-6-(5-methyl-pyridin-2-yl-methoxy)-pyrimidine-5-carbonitrile]
17 | – | – | – | – | 1.41 | Cc1cnc(COc2nc(N)nc(-c3cc(Br)co3)c2C#N)c(C)c1 [Example 533, 2-Amino-4-(4-bromo-furan-2-yl)-6-(3,5-dimethyl-pyridin-2-yl-methoxy)-pyrimidine-5-carbonitrile]
18 | – | – | – | – | 0.955 | Cc1cccnc1COc1nc(N)nc(-c2cc(Br)co2)c1C#N [Example 534, 2-Amino-4-(4-bromo-furan-2-yl)-6-(3-methyl-pyridin-2-yl-methoxy)-pyrimidine-5-carbonitrile]
19 | – | – | – | – | 3.98 | N#Cc1coc(-c2nc(N)nc(SCCc3ccccn3)c2C#N)c1 [Example 535, 2-Amino-4-(4-cyano-furan-2-yl)-6-(2-pyridin-2-yl-ethylsulfanyl)-pyrimidine-5-carbonitrile]
20 | – | – | – | – | 1.95 | N#Cc1c(SCCc2ccccn2)nc(N)nc1-c1ccc(C(F)F)o1 [Example 538, 2-Amino-4-(5-difluoromethyl-furan-2-yl)-6-(2-pyridin-2-yl-ethylsulfanyl)-pyrimidine-5-carbonitrile]

— patent publication US6586441B2, “Adenosine receptor ligands and their use in the treatment of disease” (Hoffman-La Roche Inc., priority 2000, dated 2003)
